According to patent US7556935B2 (Dana-Farber Cancer Institute, Inc., priority 2001, dated 2009):
Residues, ends and D or L forms follow the SMILES beside them. *: point of attachment. Cbz = O=C(OCc1ccccc1)*

Assays:
c-Abl [1] = experiment: c-Abl levels in the ER fraction, ER stress; format: cell-based
Procedure: (§1) Cells were treated with A23187 (Sigma) or Brefeldin A (Sigma).
(§2) Isolation of the ER fraction: Cells were washed with PBS, lysed in homogenization buffer (50 mM Tris-HCl, pH 8.0, 1 mM b-mercaptoethanol, 1 mM EDTA, 0.32 M sucrose and 0.1 mM PMSF), and then centrifuged at 5,000×g for 10 minutes. The supernatant was collected and centrifuged at 105,000×g for 1 hour. […] The resulting supernatant was used as the ER fraction.

grp78 = grp78 expression in the ER fraction, ER stress; format: cell-based
Procedure: as §1, §2

c-Abl [2] = experiment: c-Abl targeting to mitochondria under ER stress, immunofluorescence and immunoblot; format: cell-based
Procedure: as §1
Digital confocal immunofluorescence microscope: Cells grown on poly-D-lysine coated glass coverslips were fixed (3.7% formaldehyde in PBS, pH 7.4; 10 minutes), permeabilized (0.2% Triton X-100; 10 min), blocked for 30 minutes in media containing serum. After rinsing with PBS, immunostaining was performed by incubating the cells with 50 ng/slide of anti-c-Abl (K-12 rabbit polyclonal; Santa Cruz) and anti-grp-78 (C-20 goat polyclonal; Santa Cruz). For c-Abl and calreticulin staining, cells were incubated first with anti-c-Abl alone for 1 hour followed by blocking for 30 minutes in media containing serum. After washing with PBS, cells were then incubated with anti-calreticulin (rabbit polyclonal; StressGen). Finally, cells were incubated with a 1:250 dilution of CY-3 or Fluorescein (FITC)-conjugated anti-rabbit or anti-goat secondary antibodies (Jackson ImmunoResearch) for 1 hour. Mitochondria were stained with 0.006 ng/slide Mitotracker Green FM (Molecular Probes). Nuclei were stained with 4,6-diamino-2-phenylindole (DAPI; 1 mg/ml in PBS). Coverslips were mounted onto slides with 0.1 M Tris (pH 7.0) in 50% glycerol. Cells were visualized by digital confocal immunofluorescence and images were captured with cooled CCD camera mounted on a Zeiss Axioplan 2 microscope. Images were deconvolved using Slidebook software (Intelligent Imaging Innovations, Inc., Denver, Colo.).
(§3) The supernatant was collected and centrifuged at 10,000×g for 10 minutes. […] Protein concentration was determined by the Bio-Rad protein estimation kit.

c-Abl [3] = experiment: c-Abl levels in cytoplasmic and nuclear fractions, ER stress; format: cell-based
From the text: (§4) Isolation of cytoplasmic and nuclear fractions: The cytoplasmic and nuclear fractions were isolated as described in Example 1.

c-Abl [4] = experiment: Mitochondrial c-Abl kinase activity, GST-Crk(120-225) phosphorylation, ER stress; format: cell-based; settings: anti-c-Abl immunoprecipitates of mitochondrial fraction
Procedure: as §3
Analysis of c-Abl activity: Cell lysates were prepared as described in Example 1 and subjected to immunoprecipitation with anti-c-Abl (K-12; Santa Cruz). The immunoprecipitates were resuspended in kinase buffer (see Example 1) containing […] of [g-32P]ATP and GST-Crk(120-225) or GST-Crk(120-212) for 15 minutes at 30° C. The reaction products were analyzed by SDS-PAGE and autoradiography.

cytochrome c = experiment: Cytochrome c release in MEFs under ER stress; format: cell-based, mouse; settings: wild-type MEFs
Procedure: as §1, §4

MEFs = experiment: Apoptosis by sub-G1 DNA in MEFs under ER stress; format: cell-based, mouse
Procedure: Apoptosis assays: DNA content was assessed by staining ethanol-fixed cells with propidium iodide and monitoring by FACScan (Becton-Dickinson).

26S proteosome = experiment: In vitro Ub-proteosome system, degradation of catalase; format: biochemical
From the text: As a control, degradation was inhibited when [g-S]ATP was substituted for ATP to prevent ubiquitination. […] Lactacystin, another proteosome inhibitor, was used to assess degradation of catalase in cells.

Q: What does the source list for CNc1ccc2oc(C[C@H]3O[C@@]4(CC[C@H]3C)O[C@H]([C@H](C)C(=O)c3ccc[nH]3)[C@H](C)C[C@H]4C)nc2c1C(=O)O [A23187]?
A: c-Abl levels in the ER fraction (c-Abl [1]): time-dependent decrease; expression of grp78 (grp78): increases in expression of grp78; translocation of c-Abl to mitochondria, intracellular fluorescence (c-Abl [2]; anti-c-Abl and Mitotracker signals): translocation of c-Abl to mitochondria; c-Abl protein in the mitochondrial fraction, immunoblot (c-Abl [2]; mitochondrial fraction): time-dependent increase; c-Abl levels in the cytoplasm or nucleus (c-Abl [3]): little if any effect; mitochondrial c-Abl activity (c-Abl [4]): increases in mitochondrial c-Abl activity; release of cytochrome c (cytochrome c): induces the release of cytochrome c; induction of apoptosis (MEFs; c-Abl−/− cells): little effect; apoptosis, sub-G1 DNA (MEFs; wild-type cells): induction of sub-G1 DNA

Q: How did the degradation of catalase (26S proteosome) turn out when CC(C)C[C@@H](C=O)NC(=O)[C@H](CC(C)C)NC(=O)[C@H](CC(C)C)NC(=O)OCc1ccccc1 [MG132] (Cbz-Leu-Leu-Leu-aldehyde) was run?
A: The degradation of catalase was “blocked”.
